Patent US20220389515A1, “USE OF BIOMARKERS TO PREDICT CLINICAL SENSITIVITY TO 2-(4-CHLOROPHENYL)-N-((2-(2,6-DIOXOPIPERIDIN-3-YL)-1-OXOISOINDOLIN-5-YL)METHYL)-2,2-DIFLUOROACETAMIDE” (priority 2019, published 2022)

Test system: U937 cells stably expressing Cas9
Test: Genome-wide CRISPR-Cas9 screen of Compound D response
Type: cell-based, human
Experimental: FIG. 4A illustrates the schematic showing the design of the genome-wide CRISPR screen to identify molecular determinants of Compound D response. FIG. 4B illustrates the cell proliferation curve of U937-Cas9 cells transduced with the lentiviral sgRNA library and treated with DMSO or Compound D. Three days post-transduction, cells were treated with DMSO or 10 μM Compound D for 9 days. FIG. 4C illustrates normalized sgRNA read count comparison of different treatment conditions and technical replicates on day 3 and day 12 post-transduction of the lentiviral sgRNA library. 150 k sgRNAs are used in the scatter plots. Numbers in the upper right boxes indicate the Pearson correlation coefficient between samples. “***” indicates the correlation p-value is <0.001. sgRNAs targeting UBE2G1 or CRBN were shown in green and red, respectively. FIG. 4D illustrates pathway enrichment analysis of genes enriched by Compound D treatment with log 2 fold change (log 2FC)>2 and false discovery rate (FDR)<0.05 relative to the DMSO control. The color and size of the dots represent adjusted significance level and gene ratio respectively. Gene ratios refer to the number of input genes annotated to an individual pathway as a ratio of all input genes annotated to any Reactome pathway. […] The X axis denotes the Compound D enrichment score shown as log 2FC; the Y axis denotes the gene essentiality score shown as log 2FC (T12_DMSO vs T3_DMSO). Some of these genes were grouped into 10 functional modules with different color coding. […] Enriched pathways from the Reactome database were identified using Fisher's exact test and were selected by adjusted p-value (FDR)<0.05. Pathway nodes are color-coded with different shades of red according to their statistical significance. The grey nodes in the graph depict pathway genes that were enriched by Compound D treatment. The core enriched pathways modulating the response to Compound D are highlighted with green circles. FIGS. 4G and 4H show the log 2FC values of sgRNAs targeting Compound D enriched genes in the functional modules as indicated. […]

## O=C1CCC(N2Cc3cc(CNC(=O)C(F)(F)c4ccc(Cl)cc4)ccc3C2=O)C(=O)N1 (stereo not drawn) [Compound D, 2-(4-chlorophenyl)-N-((2-(2,6-dioxopiperidin-3-yl)-1-oxoisoindolin-5-yl)methyl)-2,2-difluoroacetamide]
10 μM, 9 days
  growth of U937 cells transduced with the lentiviral CRISPR library: growth arrest of U937 cells
U937-Cas9, 1 μM or 10 μM
  genes whose knockout conferred resistance (sgRNA enrichment): knockout of CRBN, TSC1, TSC2, ILF2, ILF3, ATF4, GCN2, DDIT4 or GCN1L1 genes conferred resistance to lethal doses of Compound D
U937-Cas9, sensitivity screen
  genes whose knockout enhanced sensitivity (sgRNA drop-out): knockout of RPTOR, MTOR, RICTOR, GSPT1 or DDX5 enhanced sensitivity to lethal doses of Compound D
